# Key:
# [1] = test system: HCV genotype 1a (H77 strain) replicon in HUH-7 cells; assay: HCV replicon luciferase reporter assay, genotype 1a; type: cell-based; settings: Hepatitis C virus, Huh-7, 72 h, HCV genotype 1a replicon luciferase assay, 3 days incubation, range class, read-out: LE_1a (EC50, range)
# Outline: (§1)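 Replicon inhibition for both genotypes was measured as Renilla luciferase signal (EnduRen, 7.5 μM final, 2 h) after 3-day, 37° C exposure of replicon-bearing HUH-7 cells in 4% FCS DMEM, 0.5% DMSO. The 1b construct carries S1179I; the 1a H77 construct carries P1496L and S2204I. Twenty-point, 3-fold dilutions were fitted four-parametrically for EC50, and CC50 was taken from multiplexed Cell Titer-Blue.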
# [2] = test system: HCV genotype 1b (Con1) replicon in HUH-7 cells; assay: HCV replicon luciferase reporter assay, genotype 1b; type: cell-based; settings: Hepatitis C virus, Huh-7, 72 h, HCV genotype 1b replicon luciferase assay, 3 days incubation, range class, read-out: LE_1b (EC50, range)
# Outline: as §1
structure (smiles),measurement,setting,value
"COc1ccc2c(O[C@@H]3C[C@H]4C(=O)N[C@]5(C(=O)NS(=O)(=O)C6(C)CC6)C[C@H]5/C=C\CC[C@@H](C)C[C@@H](C)[C@H](NC(=O)OC(C)(C)C(F)(F)F)C(=O)N4C3)nc(N(C)C)nc2c1 [Compound 3004, 1,1,1-trifluoro-2-methylpropan-2-yl((2R,6S,7R,9R,13aS,14aR,16aS,Z)-2-((2-(dimethylamino)-7-methoxyquinazolin-4-yl)oxy)-7,9-dimethyl-14a-(((1-methylcyclopropyl)sulfonyl)carbamoyl)-5,16-dioxo-1,2,3,5,6,7,8,9,10,11,13a,14,14a,15,16,16a-hexadecahydrocyclopropa[e]pyrrolo[1,2-a][1,4]diazacyclopentadecin-6-yl)carbamate]",EC50,[1],< 5.46 nM
same,EC50,[2],< 5.46 nM
"COc1ccc2c(O[C@@H]3C[C@H]4C(=O)N[C@]5(C(=O)NS(=O)(=O)C6(CF)CC6)C[C@H]5/C=C\CC[C@H](C)C[C@@H](C)[C@H](NC(=O)OC(C)(C)C)C(=O)N4C3)nc(N(C)C)nc2c1 [Compound 3005, tert-butyl ((2R,6S,7R,9S,13aS,14aR,16aS,Z)-2-((2-(dimethylamino)-7-methoxyquinazolin-4-yl)oxy)-14a-(((1-(fluoromethyl)cyclopropyl)sulfonyl)carbamoyl)-7,9-dimethyl-5,16-dioxo-1,2,3,5,6,7,8,9,10,11,13a,14,14a,15,16,16a-hexadecahydrocyclopropa[e]pyrrolo[1,2-a][1,4]diazacyclopentadecin-6-yl)carbamate]",EC50,[1],4.82 to 103 nM
same,EC50,[2],4.82 to 103 nM
"COc1ccc2c(O[C@@H]3C[C@H]4C(=O)N[C@]5(C(=O)NS(=O)(=O)C6(CF)CC6)C[C@H]5/C=C\CC[C@@H](C)C[C@@H](C)[C@H](NC(=O)OC(C)(C)C)C(=O)N4C3)nc(N(C)C)nc2c1 [Compound 3006, tert-butyl ((2R,6S,7R,9R,13aS,14aR,16aS,Z)-2-((2-(dimethylamino)-7-methoxyquinazolin-4-yl)oxy)-14a-(((1-(fluoromethyl)cyclopropyl)sulfonyl)carbamoyl)-7,9-dimethyl-5,16-dioxo-1,2,3,5,6,7,8,9,10,11,13a,14,14a,15,16,16a-hexadecahydrocyclopropa[e]pyrrolo[1,2-a][1,4]diazacyclopentadecin-6-yl)carbamate]",EC50,[1],< 5.46 nM
same,EC50,[2],< 5.46 nM
"COc1ccc2c(O[C@@H]3C[C@H]4C(=O)N[C@]5(C(=O)NS(=O)(=O)C6(C)CC6)C[C@H]5/C=C\CC[C@H](C)C[C@@H](C)[C@H](NC(=O)OC(C)(C)C)C(=O)N4C3)nc(-c3ccc(OC(C)C)cc3)nc2c1 [Compound 3007, tert-butyl ((2R,6S,7R,9S,13aS,14aR,16aS,Z)-2-((2-(4-isopropoxyphenyl)-7-methoxyquinazolin-4-yl)oxy)-7,9-dimethyl-14a-(((1-methylcyclopropyl)sulfonyl)carbamoyl)-5,16-dioxo-1,2,3,5,6,7,8,9,10,11,13a,14,14a,15,16,16a-hexadecahydrocyclopropa[e]pyrrolo[1,2-a][1,4]diazacyclopentadecin-6-yl)carbamate]",EC50,[1],< 5.46 nM
same,EC50,[2],< 5.46 nM
"COc1ccc2c(O[C@@H]3C[C@H]4C(=O)N[C@]5(C(=O)NS(=O)(=O)C6(C)CC6)C[C@H]5/C=C\CC[C@@H](C)C[C@@H](C)[C@H](NC(=O)OC(C)(C)C)C(=O)N4C3)nc(-c3ccc(OC(C)C)cc3)nc2c1 [Compound 3008, tert-butyl ((2R,6S,7R,9R,13aS,14aR,16aS,Z)-2-((2-(4-isopropoxyphenyl)-7-methoxyquinazolin-4-yl)oxy)-7,9-dimethyl-14a-(((1-methylcyclopropyl)sulfonyl)carbamoyl)-5,16-dioxo-1,2,3,5,6,7,8,9,10,11,13a,14,14a,15,16,16a-hexadecahydrocyclopropa[e]pyrrolo[1,2-a][1,4]diazacyclopentadecin-6-yl)carbamate]",EC50,[1],< 5.46 nM
same,EC50,[2],< 5.46 nM
"COc1ccc2c(O[C@@H]3C[C@H]4C(=O)N[C@]5(C(=O)NS(=O)(=O)C6(CF)CC6)C[C@H]5/C=C\CC[C@H](C)C[C@@H](C)[C@H](NC(=O)OC(C)(C)C(F)(F)F)C(=O)N4C3)nc(N(C)C)nc2c1 [Compound 3009, 1,1,1-trifluoro-2-methylpropan-2-yl((2R,6S,7R,9S,13aS,14aR,16aS,Z)-2-((2-(dimethylamino)-7-methoxyquinazolin-4-yl)oxy)-14a-(((1-(fluoromethyl)cyclopropyl)sulfonyl)carbamoyl)-7,9-dimethyl-5,16-dioxo-1,2,3,5,6,7,8,9,10,11,13a,14,14a,15,16,16a-hexadecahydrocyclopropa[e]pyrrolo[1,2-a][1,4]diazacyclopentadecin-6-yl)carbamate]",EC50,[1],4.82 to 103 nM
same,EC50,[2],4.82 to 103 nM
"COc1ccc2c(O[C@@H]3C[C@H]4C(=O)N[C@]5(C(=O)NS(=O)(=O)C6(CF)CC6)C[C@H]5/C=C\CC[C@@H](C)C[C@@H](C)[C@H](NC(=O)OC(C)(C)C(F)(F)F)C(=O)N4C3)nc(N(C)C)nc2c1 [Compound 3010, 1,1,1-trifluoro-2-methylpropan-2-yl((2R,6S,7R,9R,13aS,14aR,16aS,Z)-2-((2-(dimethylamino)-7-methoxyquinazolin-4-yl)oxy)-14a-(((1-(fluoromethyl)cyclopropyl)sulfonyl)carbamoyl)-7,9-dimethyl-5,16-dioxo-1,2,3,5,6,7,8,9,10,11,13a,14,14a,15,16,16a-hexadecahydrocyclopropa[e]pyrrolo[1,2-a][1,4]diazacyclopentadecin-6-yl)carbamate]",EC50,[1],< 5.46 nM
same,EC50,[2],< 5.46 nM
"COc1ccc2c(O[C@@H]3C[C@H]4C(=O)N[C@]5(C(=O)NS(=O)(=O)C6(C)CC6)C[C@H]5/C=C\CC[C@H](C)C[C@@H](C)[C@H](NC(=O)OC(C)(C)C(F)(F)F)C(=O)N4C3)nc(-c3ccc(OC(C)C)cc3)nc2c1 [Compound 3011, 1,1,1-trifluoro-2-methylpropan-2-yl((2R,6S,7R,9S,13aS,14aR,16aS,Z)-2-((2-(4-isopropoxyphenyl)-7-methoxyquinazolin-4-yl)oxy)-7,9-dimethyl-14a-(((1-methylcyclopropyl)sulfonyl)carbamoyl)-5,16-dioxo-1,2,3,5,6,7,8,9,10,11,13a,14,14a,15,16,16a-hexadecahydrocyclopropa[e]pyrrolo[1,2-a][1,4]diazacyclopentadecin-6-yl)carbamate]",EC50,[1],4.82 to 103 nM
same,EC50,[2],< 5.46 nM
"COc1ccc2c(O[C@@H]3C[C@H]4C(=O)N[C@]5(C(=O)NS(=O)(=O)C6(C)CC6)C[C@H]5/C=C\CC[C@@H](C)C[C@@H](C)[C@H](NC(=O)OC(C)(C)C(F)(F)F)C(=O)N4C3)nc(-c3ccc(OC(C)C)cc3)nc2c1 [Compound 3012, 1,1,1-trifluoro-2-methylpropan-2-yl((2R,6S,7R,9R,13aS,14aR,16aS,Z)-2-((2-(4-isopropoxyphenyl)-7-methoxyquinazolin-4-yl)oxy)-7,9-dimethyl-14a-(((1-methylcyclopropyl)sulfonyl)carbamoyl)-5,16-dioxo-1,2,3,5,6,7,8,9,10,11,13a,14,14a,15,16,16a-hexadecahydrocyclopropa[e]pyrrolo[1,2-a][1,4]diazacyclopentadecin-6-yl)carbamate]",EC50,[1],< 5.46 nM
same,EC50,[2],< 5.46 nM
"COc1ccc2c(O[C@@H]3C[C@H]4C(=O)N[C@]5(C(=O)NS(=O)(=O)C6(CF)CC6)C[C@H]5/C=C\CC[C@H](C)C[C@@H](C)[C@H](NC(=O)OC(C)(C)C)C(=O)N4C3)nc(N3CCCC3)nc2c1 [Compound 3013, tert-butyl ((2R,6S,7R,9S,13aS,14aR,16aS,Z)-14a-(((1-(fluoromethyl)cyclopropyl)sulfonyl)carbamoyl)-2-((7-methoxy-2-(pyrrolidin-1-yl)quinazolin-4-yl)oxy)-7,9-dimethyl-5,16-dioxo-1,2,3,5,6,7,8,9,10,11,13a,14,14a,15,16,16a-hexadecahydrocyclopropa[e]pyrrolo[1,2-a][1,4]diazacyclopentadecin-6-yl)carbamate]",EC50,[1],4.82 to 103 nM
same,EC50,[2],4.82 to 103 nM
"COc1ccc2c(O[C@@H]3C[C@H]4C(=O)N[C@]5(C(=O)NS(=O)(=O)C6(CF)CC6)C[C@H]5/C=C\CC[C@@H](C)C[C@@H](C)[C@H](NC(=O)OC(C)(C)C)C(=O)N4C3)nc(N3CCCC3)nc2c1 [Compound 3014, tert-butyl ((2R,6S,7R,9R,13aS,14aR,16aS,Z)-14a-(((1-(fluoromethyl)cyclopropyl)sulfonyl)carbamoyl)-2-((7-methoxy-2-(pyrrolidin-1-yl)quinazolin-4-yl)oxy)-7,9-dimethyl-5,16-dioxo-1,2,3,5,6,7,8,9,10,11,13a,14,14a,15,16,16a-hexadecahydrocyclopropa[e]pyrrolo[1,2-a][1,4]diazacyclopentadecin-6-yl)carbamate]",EC50,[1],4.82 to 103 nM
same,EC50,[2],< 5.46 nM
"COc1ccc2c(O[C@@H]3C[C@H]4C(=O)N[C@]5(C(=O)NS(=O)(=O)C6(CF)CC6)C[C@H]5/C=C\CC[C@@H](C)C[C@@H](C)[C@H](NC(=O)OC(C)(C)C)C(=O)N4C3)nc(OC)nc2c1 [Compound 3015, tert-butyl ((2R,6S,7R,9R,13aS,14aR,16aS,Z)-2-((2,7-dimethoxyquinazolin-4-yl)oxy)-14a-(((1-(fluoromethyl)cyclopropyl)sulfonyl)carbamoyl)-7,9-dimethyl-5,16-dioxo-1,2,3,5,6,7,8,9,10,11,13a,14,14a,15,16,16a-hexadecahydrocyclopropa[e]pyrrolo[1,2-a][1,4]diazacyclopentadecin-6-yl)carbamate]",EC50,[1],< 5.46 nM
same,EC50,[2],< 5.46 nM
